The assay deals with interaction between GST-MAGEA11 MHD and FAM-PCF11_4 peptide (MAGE-A11:PCF11) (Homo sapiens (Human), UniProt P43364). Kind of assay: TR-FRET dose response competition assay for disruption of MAGE-A11:PCF11 binding. Conditions: Dose response TR-FRET screening of nine scaffold groups against MAGE-A11:PCF11; read-out: consensus IC50. In a few lines: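 Competition TR-FRET at room temperature in 50 mM Tris pH 7.5, 20 mM MgCl2, 0.1 mg/ml BSA, 1 mM DTT: final 5 nM GST-MAGEA11 MHD, 5 nM Tb-anti-GST, 200 nM FAM-PCF11_4, 90 min. Ratio 520/490 nm converted to % inhibition; IC50 from sigmoidal fit.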
Chain of interaction between GST-MAGEA11 MHD and FAM-PCF11_4 peptide (MAGE-A11:PCF11) (P43364 218-429): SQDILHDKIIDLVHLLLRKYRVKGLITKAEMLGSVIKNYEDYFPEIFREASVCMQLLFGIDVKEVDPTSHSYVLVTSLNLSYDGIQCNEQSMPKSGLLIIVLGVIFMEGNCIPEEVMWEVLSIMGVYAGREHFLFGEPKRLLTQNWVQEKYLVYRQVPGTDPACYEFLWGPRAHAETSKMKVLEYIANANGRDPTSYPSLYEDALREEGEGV

For orientation: IC50 means the point on the concentration scale where inhibition reaches its midpoint. Take `COCCn1c(-c2ccc(SC)cc2)nc2c1c(=O)[nH]c(=O)n2CC(C)C` [SJ000378917-1]: the IC50 amounted to 69.9 µM.
For `CCCCn1c(=O)[nH]c(=O)c2c1nc(-c1ccc(C)c([N+](=O)[O-])c1)n2CC` [SJ000378919-1], the IC50 came out at 69.9 µM.
`CCCn1c(=O)[nH]c(=O)c2c1nc(-c1cccc(F)c1)n2CCOC` [SJ000378928-1]: the half-inhibitory concentration (IC50) is 69.9 µM.
Consider `CCCCn1c(=O)[nH]c(=O)c2c1nc(-c1ccc([N+](=O)[O-])cc1)n2CC` [SJ000378938-1], for which the IC50 is 69.9 µM.
For `CCCCn1c(=O)[nH]c(=O)c2c1nc(-c1ccc(OC)c(Br)c1)n2CC(C)C` [SJ000378943-1], the IC50 is 69.9 µM.
The value for `CCCCn1c(=O)[nH]c(=O)c2c1nc(-c1ccc(OCCC)c(OCC)c1)n2CCOC` [SJ000378946-1] was 69.9 µM; that for `CCCCn1c(=O)[nH]c(=O)c2c1nc(-c1ccc(OC(F)(F)C(F)C(F)(F)F)cc1)n2O` (stereo not drawn) [SJ000378966-1] was 69.9 µM.
Turning to `Cc1ccc(-c2nc3c(c(=O)[nH]c(=O)n3CC(C)C)n2CC(C)C)cc1[N+](=O)[O-]` [SJ000379015-1], the IC50 stood at 69.9 µM.
As to `C=CCOc1ccc(-c2nc3c(c(=O)[nH]c(=O)n3Cc3ccccc3)n2CCC)cc1Br` [SJ000379301-1], the IC50 was determined as 69.9 µM.
For `CCCn1c(=O)[nH]c(=O)c2c1nc(-c1ccc(OC(F)(F)C(F)C(F)(F)F)cc1)n2CCOC` (stereo not drawn) [SJ000379374-1], the 50% inhibitory concentration (IC50) was found to be 69.9 µM.
Regarding `C=CCOc1ccc(-c2nc3c(c(=O)[nH]c(=O)n3CCCC)n2C)cc1Br` [SJ000379462-1], the IC50 amounted to 69.9 µM.
On to `CCCn1c(-c2ccc(SC)cc2)nc2c1c(=O)[nH]c(=O)n2Cc1ccccc1` [SJ000381119-1], for which the half-maximal inhibitory concentration (IC50) was 69.9 µM.
For the compound `CCCOc1ccc(-c2nc3c(c(=O)[nH]c(=O)n3Cc3ccccc3)n2CCO)cc1OCC` [SJ000381474-1], the IC50 was found to be 69.9 µM.
`CCCCn1c(=O)[nH]c(=O)c2c1nc(-c1ccc(SC)cc1)n2C` [SJ000382100-1]: the IC50 turned out to be 69.9 µM.
Turning to `COc1ccc(Br)cc1-c1nc2c(c(=O)[nH]c(=O)n2Cc2ccccc2)n1C` [SJ000382136-1], the IC50 is 69.9 µM.
Consider `CCCn1c(-c2cccc(C(F)(F)F)c2)nc2c1c(=O)[nH]c(=O)n2Cc1ccccc1` [SJ000382289-1], for which the IC50 turned out to be 69.9 µM.
With `CCCn1c(-c2cccc(F)c2)nc2c1c(=O)[nH]c(=O)n2Cc1ccccc1` [SJ000382299-1], the IC50 was found to be 69.9 µM.
Regarding `CCCn1c(-c2ccc(C#N)cc2)nc2c1c(=O)[nH]c(=O)n2Cc1ccccc1` [SJ000383781-1], the IC50 is 69.9 µM.
The value for `COCCCn1c(-c2cccc(Cl)c2)nc2c1c(=O)[nH]c(=O)n2Cc1ccccc1` [SJ000383944-1] was 69.9 µM.
With `Cn1c(-c2ccc(Cl)cc2)nc2c1c(=O)[nH]c(=O)n2Cc1ccccc1` [SJ000384618-1], the IC50 was determined as 69.9 µM.
With `Cn1c(-c2cc(Cl)ccc2O)nc2c1c(=O)[nH]c(=O)n2Cc1ccccc1` [SJ000386224-1], the IC50 turned out to be 69.9 µM.
The value for `Cn1c(-c2cccc(F)c2)nc2c1c(=O)[nH]c(=O)n2Cc1ccccc1` [SJ000387665-1] was 69.9 µM; that for `CCOc1ccc(-c2nc3c(c(=O)[nH]c(=O)n3Cc3ccccc3)n2C)cc1` [SJ000389476-1] was 69.9 µM; that for `CC(C)Cn1c(-c2cc([N+](=O)[O-])ccc2Cl)nc2c1c(=O)[nH]c(=O)n2Cc1ccccc1` [SJ000390112-1] was 69.9 µM.
For `CSc1ccc(-c2nc3c(c(=O)[nH]c(=O)n3CC(C)C)n2CC(C)C)cc1` [SJ000394956-1], the IC50 worked out at 69.9 µM.
Regarding `CCCN1C(=O)c2ccccc2NC1c1cccc(O)c1O` (stereo not drawn) [SJ000395233-1], the IC50 is 69.9 µM.
`COCCNC(=O)Cn1cnc2cc(-c3ccc(Cl)cc3)sc2c1=O` [SJ000395304-1]: the IC50 worked out at 69.9 µM.
Take `CN(C)c1ccc(-c2nc3c(c(=O)[nH]c(=O)n3Cc3ccccc3)n2C)cc1` [SJ000396262-1]: the IC50 was found to be 69.9 µM.
For `COc1ccc(-c2cc3ncn(CC(=O)O)c(=O)c3s2)cc1` [SJ000397503-1], the IC50 came to 69.9 µM.
As for `N#CCCn1cnc2cc(-c3ccc(Br)cc3)sc2c1=O` [SJ000397713-1], the IC50 stood at 69.9 µM.
The value for `CCCCOC(=O)Cn1cnc2cc(-c3ccc(OC)cc3)sc2c1=O` [SJ000399852-1] was 69.9 µM.
The value for `CCOC(=O)Cn1cnc2cc(-c3ccc(OC)cc3)sc2c1=O` [SJ000399862-1] was 69.9 µM.
Consider `CCCn1c(=O)[nH]c(=O)c2c1nc(-c1ccc(C#N)cc1)n2CCN1CCOCC1` [SJ000403937-1], for which the IC50 was found to be 69.9 µM.
The value for `Cn1c(-c2ccc(C(F)(F)F)cc2)nc2c1c(=O)[nH]c(=O)n2Cc1ccccc1` [SJ000404631-1] was 69.9 µM; that for `CSc1nc2cc(-c3ccccc3)sc2c(=O)n1CCN1CCOCC1` [SJ000405932-1] was 69.9 µM; that for `CCCn1c(=O)[nH]c(=O)c2c1nc(-c1ccc(NC(C)=O)cc1)n2CCN1CCOCC1` [SJ000406218-1] was 69.9 µM.
In the case of `COCCCn1c(-c2cc(Br)ccc2F)nc2c1c(=O)[nH]c(=O)n2Cc1ccccc1` [SJ000411586-1], the IC50 was 69.9 µM.
As to `O=C1OCC(c2ccc(Cl)cc2)=C1c1ccc([N+](=O)[O-])cc1` [SJ000413143-1], the half-maximal inhibitory concentration (IC50) was determined as 69.9 µM.
Consider `CCC(C)N1C(=O)c2ccccc2NC1c1cccc(OC)c1O` (stereo not drawn) [SJ000413320-1], for which the concentration for half-maximal inhibition (IC50) was 69.9 µM.
As to `CCCN1C(=O)c2ccccc2NC1c1cc(Cl)c(O)c(OC)c1` (stereo not drawn) [SJ000414199-1], the IC50 amounted to 69.9 µM.
Consider `CCCCn1c(=O)[nH]c(=O)c2c1nc(-c1cccc(F)c1)n2CC` [SJ000414469-1], for which the IC50 was determined as 69.9 µM.
Consider `CCCCn1c(=O)[nH]c(=O)c2c1nc(-c1cccc(F)c1)n2C` [SJ000415940-1], for which the IC50 worked out at 69.9 µM.
With `CCCn1c(=O)[nH]c(=O)c2c1nc(-c1ccc(SC)cc1)n2CCOC` [SJ000416762-1], the 50% inhibitory concentration (IC50) amounted to 69.9 µM.
The value for `COC(=O)Cn1cnc2cc(-c3ccc(Cl)cc3)sc2c1=O` [SJ000418500-1] was 69.9 µM; that for `COCCCn1c(-c2ccc(C#N)cc2)nc2c1c(=O)[nH]c(=O)n2Cc1ccccc1` [SJ000420075-1] was 69.9 µM; that for `C=CCOc1ccc(-c2nc3c(c(=O)[nH]c(=O)n3Cc3ccccc3)n2C)cc1Br` [SJ000420085-1] was 69.9 µM.
As for `CCCn1c(-c2ccc(C(=O)O)cc2)nc2c1c(=O)[nH]c(=O)n2Cc1ccccc1` [SJ000420129-1], the IC50 stood at 69.9 µM.
Consider `CCCn1c(-c2ccc(C(=O)OC)cc2)nc2c1c(=O)[nH]c(=O)n2Cc1ccccc1` [SJ000420179-1], for which the IC50 worked out at 69.9 µM.
`CCc1ccc(-c2nc3c(c(=O)[nH]c(=O)n3CC(C)C)n2CCOC)cc1` [SJ000420343-1]: the half-inhibitory concentration (IC50) came out at 69.9 µM.
With `CCCCn1c(=O)[nH]c(=O)c2c1nc(-c1ccc(C#N)cc1)n2C` [SJ000421295-1], the IC50 stood at 69.9 µM.
The value for `COCCn1c(-c2ccc(C)cc2)nc2c1c(=O)[nH]c(=O)n2CC(C)C` [SJ000421396-1] was 69.9 µM; that for `CCCCn1c(=O)[nH]c(=O)c2c1nc(-c1ccc(F)cc1)n2CCOC` [SJ000421862-1] was 69.9 µM.
Turning to `COCCn1c(-c2ccc(F)cc2)nc2c1c(=O)[nH]c(=O)n2CC(C)C` [SJ000422648-1], the IC50 is 69.9 µM.
`CCCn1c(=O)[nH]c(=O)c2c1nc(-c1ccc(OC)cc1)n2CCOC` [SJ000423271-1]: the IC50 worked out at 69.9 µM.

The values above are taken from patent US20240246941A1, “SUBSTITUTED 4-(3-AMINOPROP-1-YL)AMINOQUINOLINE ANALOGS AS MODULATORS OF MELANOMA-ASSOCIATED ANTIGEN 11 UBIQUITIN LIGASE” (ST. JUDE CHILDREN'S RESEARCH HOSPITAL, INC., priority 2020, published 2024).
